Test results: US4997926A, “Deaminase-stable anti-retroviral 2-halo-2',3'-dideoxy” (Scripps Clinic and Research Foundation, priority 1987, dated 1991)

Key:
[1] = test system: HIV in deoxycytidine kinase-deficient CEM variant; assay: HIV p24 (gag) antigen in deoxycytidine kinase deficient CEM variant; assay type: cell-based
Description: Open symbols show the effects of the respective same dideoxynucelosides on HIV replication in a deoxycytidine kinase-deficient CEM variant.
HIV infection of the CEM T lymphoblastoid cell line was monitored by the release of the HIV p24 (gag) protein into the medium, exactly as described previously [Cleveland et al. (1987) J. Clin. Microbiol., 25:416-420 and Fishbein et al. (1981) Biochem. Med., 26:377-386]. The growth inhibiting effects of the nucleosides toward CEM lymphoblasts, and toward the deoxycytidine kinase deficient mutant, were also monitored as described earlier [Carson et al. (1980) Proc. Natl. Acad. Sci. USA, 77:6865-6869].

[2] = acid conditions; cited from earlier work
HIV in MDM cells = assay: Synthesis of HIV p24 (gag) antigen in monocyte derived macrophages (MDM), 3-day assay; assay type: cell-based; conditions: 0.1-100 uM
Description: The ability of AZT, ddC and ddA to inhibit synthesis of the p24 (gag) antigen of HIV in CEM and MDM cells was also examined. For CEM cells, the results for all three compounds were similar to those discussed in Mitsuya et al. (1987) Nature, 325:773-778 with ddC providing the most inhibitory effect at the lowest concentration, followed by AZT, followed by ddA in a 3-day assay.

[3] = test system: deoxycytidine kinase and adenosine kinase deficient CEM T cells (clone AraC-8DM10-5); assay type: in vitro ADME, human; conditions: 3 uM, 4 hours
Description: ^1 Human CEM T cells, or variants deficient in either deoxycytidine
kinase, or deoxycytidine kinase plus adenosine kinase, were incubated at
density of 5 × 10^7 cells/ml in medium containing 3 uM [8^3
H2-chloro-2',3dideoxyadenosine. After 4 hours, the nucleotides in the
methanolsoluble extracts were determined after separation by HPLC, as
described in the Materials and Methods.
The human T lymphoblastoid cell line, CCRF-CEM, and mutants deficient in either deoxycytidine kinase (clone AraC-8D), or deoxycytidine kinase plus adenosine kinase (clone AraC-8DM10-5) were obtained and propagated as described previously [Foley et al., (1965) Cancer, 18:552-529 and Hershfield et al., (1982) J. Biol. Chem., 257:6380-6386]. For metabolic studies, the cells were cultured in RPMI 1640 medium supplemented with 2 mM L-glutamine and 10 percent fetal bovine serum at a density of 2×10^7 cells/ml in the presence of radiolabelled dideoxynucleosides, as indicated earlier. Some cultures were pre-incubatedfor 30 minutes either with 5 uM 2'-deoxycoformycin or 50 uM coformycin. After 4 hours of incubation the cells were harvested by centrifugation.
The cell pellets were washed with Hank's balanced salt solution at 4 degrees C., and extracted with 1 ml 60 percent methanol/water at -20 degrees C. for 10 minutes. Initial studies included 2',3'-dideoxyadenosine5'-triphosphate as an internal recovery marker. The nucleotides were fractionated by high performance liquid chromatography on an Whatman Partisil-10 SAX column, applying a gradient of zero to 100 percent buffer B in buffer A. Buffer A was 7 mM potassium phosphate pH 3.4. Buffer B was 0.5 M potassium phosphate, pH 3.4, one M KCl. The flow rate was 1.5 ml/minute, 1 minute fractions were collected. Buffer A was used alone for the first ten fractions after which elution with Buffer B began and was continued through fraction thirty, after which the eluting buffer was completely Buffer B. The nucleoside was eluted by about fraction six. The monophosphate eluted between about fractions fifteen and eighteen, the diphosphate between about fractions twenty-seven and thirty-two, and the triphosphate eluted between about fractions fifty-one and about sixty-five.

SMILES	protection from HIV infection, p24 (gag) antigen detection [1]	rate of acid hydrolysis relative to adenosine [2]	inhibition of p24 (gag) production from MDM cells (HIV in MDM cells)	Nucleotide Formed, Diphosphate [3]	Nucleotide Formed, Monophosphate [3]	Nucleotide Formed, Triphosphate [3]
Nc1ncnc2c1ncn2[C@H]1CC[C@@H](CO)O1 [2',3'-dideoxyadenosine, reference compound]	equivalent anti-HIV activity	about 40,000 times faster	none of those compounds provided any inhibition			
Nc1nc(Cl)nc2c1ncn2[C@H]1CC[C@@H](CO)O1 [2-chloro-2',3'-dideoxyadenosine]				0.7 pmols/10^8 cells/4 hrs	0.9 pmols/10^8 cells/4 hrs	2.5 pmols/10^8 cells/4 hrs
